Drawing on patent publication US20200131180A1, “POSITIVE ALLOSTERIC MODULATORS OF THE MUSCARINIC ACETYLCHOLINE RECEPTOR M1” (Vanderbilt University, priority 2018, published 2020), this text covers EC50 and Emax for 18 molecules.

SMILES strings stand for the structures. pEC50: −log10 of the molar value.

For this assay, the target named is T1, human mAChR M1 (Homo sapiens, UniProt P11229).
T1 sequence (P11229 1-460): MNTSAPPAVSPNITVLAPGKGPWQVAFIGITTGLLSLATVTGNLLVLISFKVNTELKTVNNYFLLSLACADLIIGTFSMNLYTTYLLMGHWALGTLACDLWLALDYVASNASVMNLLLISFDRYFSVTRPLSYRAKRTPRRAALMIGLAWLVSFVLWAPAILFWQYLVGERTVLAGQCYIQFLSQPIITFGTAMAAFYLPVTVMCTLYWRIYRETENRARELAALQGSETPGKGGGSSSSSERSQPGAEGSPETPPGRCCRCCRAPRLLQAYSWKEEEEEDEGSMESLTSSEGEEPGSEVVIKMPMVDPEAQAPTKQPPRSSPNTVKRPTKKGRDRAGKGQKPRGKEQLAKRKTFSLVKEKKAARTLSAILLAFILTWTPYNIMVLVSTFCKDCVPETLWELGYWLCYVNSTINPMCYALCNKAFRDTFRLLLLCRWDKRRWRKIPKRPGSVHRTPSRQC
The assay can be described thus: mAChR M1 cell-based functional assay (calcium mobilization, PAM activity). The settings on record: CHO-K1 cells expressing hM1, calcium flux (Fluo-4); for pEC50: concentration-dependent increase in the EC20 acetylcholine response; for Emax: potentiation of EC20 acetylcholine response. The source says:
Chinese hamster ovary (CHO-K1) cells stably expressing rat (r)M1 were purchased from the American Type Culture Collection and cultured according to their indicated protocol. CHO cells stably expressing human (h)M2, hM3, and hM5 were described previously (Levey, et al., 1991); hM1 and hM4 cDNAs were purchased from Missouri S&T cDNA Resource; rM4 cDNA was provided by T. I. Bonner (National Institutes of Health, Bethesda, Md.). rM2 and rM3 were cloned from a rat brain cDNA library and sequence verified. hM1, rM2, rM3, hM4, and rM4 cDNAs were used to stably transfect CHO-K1 cells purchased from the American Type Culture Collection using Lipofectamine 2000. To make stable rM2, hM2, rM3, hM4, and rM4 cell lines for use in calcium mobilization assays, these cells also were stably transfected with a chimeric G-protein (Gqi5) (provided by B. R. Conklin, University of California, San Francisco) using Lipofectamine 2000. rM1, hM1, rM3, hM3, rM5, and hM5 cells were grown in Ham's F-12 medium containing 10% heat-inactivated fetal bovine serum (FBS), 20 mM HEPES, and 50 μg/mL G418 sulfate. rM2-Gqi5, hM2-Gqi5, and hM4-Gqi5 cells were grown in the same medium also containing 500 μg/mL Hygromycin B. Stable rM4-Gqi5 cells were grown in DMEM containing 10% heat-inactivated FBS, 20 mM HEPES, 400 μg/mL G418 sulfate, and 500 μg/mL Hygromycin B.
For high throughput measurement of agonist-evoked increases in intracellular calcium, CHO-K1 cells stably expressing muscarinic receptors were plated in growth medium lacking G418 and hygromycin at 15,000 cells/20 μL/well in Greiner 384-well black-walled, tissue culture (TC)-treated, clear-bottom plates (VWR). Cells were incubated overnight at 37° C. and 5% CO2. The next day, cells were washed using an ELX 405 (BioTek) with four washes (80 μL) of assay buffer then aspirated to 20 μL. Next, 20 μL of 16 μM Fluo-4/acetoxymethyl ester (Invitrogen, Carlsbad, Calif.) prepared as a 2.3 mM stock in DMSO and mixed in a 1:1 ratio with 10% (w/v) Pluronic F-127 and diluted in assay buffer was added to the wells and the cell plates were incubated for 50 min at 37° C. and 5% CO2. Dye was removed by washing with the ELX 405 (four 80 μL washes of assay buffer) then aspirated to 20 μL. Compound master plates were formatted in an 11 point CRC format (1:3 dilutions) in 100% DMSO with a starting concentration of 10 mM using the BRAVO liquid handler (Agilent). Test compound CRCs were then transferred to daughter plates (240 nL) using the Echo acoustic plate reformatter (Labcyte, Sunnyvale, Calif.) and then diluted into assay buffer (40 μL) to a 2× stock using a Thermo Fisher Combi (Thermo Fisher Scientific, Waltham, Mass.).
Calcium flux was measured using the Functional Drug Screening System (FDSS) 6000 (Hamamatsu Corporation, Tokyo, Japan) as an increase in the fluorescent static ratio. Compounds were applied to cells (20 μL, 2×) using the automated system of the FDSS 6000 at 4 s into the 300 s protocol and the data were collected at 1 Hz. At 144 s into the 300s protocol, 10 μL of an EC20 concentration of the muscarinic receptor agonist acetylcholine was added (5×), followed by the addition of 12 μL an EC80 concentration of acetylcholine at the 230 s time point (5×). Agonist activity was analyzed as a concentration-dependent increase in calcium mobilization upon compound addition. Emax values for agonist activity are expressed relative to the maximum for acetylcholine. Positive allosteric modulator activity was analyzed as a concentration-dependent increase in the EC20 acetylcholine response. Antagonist activity was analyzed as a concentration-dependent decrease in the EC80 acetylcholine response. Concentration-response curves were generated using a four-parameter logistical equation in XLfit curve fitting software (IDBS, Bridgewater, N.J.) for Excel (Microsoft, Redmond, Wash.) or Prism (GraphPad Software, Inc., San Diego, Calif.). […]
In general terms: A change in cytosolic calcium serves as a functional read-out for many receptors and channels.

On to `Cn1ccc(-c2ccc(Cc3cc(C(=O)N[C@H]4CCCC[C@@H]4O)c4ncnn4c3)c(F)c2)n1` [compound 46, 6-[[2-fluoro-4-(1-methylpyrazol-3-yl)phenyl]methyl]-N-[(1S,2S)-2-hydroxycyclohexyl]-[1,2,4]triazolo[1,5-a]pyridine-8-carboxamide], for which the negative logarithm of the EC50 (pEC50) was 6.13 and the maximal effect (Emax) is 79%.
`Cn1ccc(-c2cc(F)c(Cc3cc(C(=O)N[C@H]4CCCC[C@@H]4O)c4nccn4c3)c(F)c2)n1` [compound 39, 6-[[2,6-difluoro-4-(1-methylpyrazol-3-yl)phenyl]methyl]-N-[(1S,2S)-2-hydroxycyclohexyl]imidazo[1,2-a]pyridine-8-carboxamide]: the negative logarithm of the EC50 (pEC50) was 6.25 and the maximum response (Emax) worked out at 58%.
Consider `Cn1ccc(-c2ccc(Cc3cc(C(=O)N[C@H]4CCCC[C@@H]4O)c4nccn4c3)c(F)c2)n1` [compound 52, 6-[[2-fluoro-4-(1-methylpyrazol-3-yl)phenyl]methyl]-N-[(1S,2S)-2-hydroxycyclohexyl]imidazo[1,2-a]pyridine-8-carboxamide], for which the pEC50 is 6.38 and the Emax is 70%.
`Cn1ccc(-c2ccc(Cc3cc(C(=O)N[C@H]4CCC[C@@H]4O)c4nccn4c3)c(F)c2)n1` [compound 59, 6-[[2-fluoro-4-(1-methylpyrazol-3-yl)phenyl]methyl]-N-[(1S,2S)-2-hydroxycyclopentyl]imidazo[1,2-a]pyridine-8-carboxamide]: the pEC50 was 5.92 and the Emax is 79%.
For `O=C(N[C@H]1CCOC[C@@H]1O)c1cc(Cc2ccc(-n3cccn3)cc2)cn2ncnc12` [compound 30, N-[(3R,4S)-3-hydroxytetrahydropyran-4-yl]-6-[(4-pyrazol-1-ylphenyl)methyl]-[1,2,4]triazolo[1,5-a]pyridine-8-carboxamide], in that order: 5.90 and 85%.
For `O=C(N[C@H]1CCCC[C@@H]1O)c1cc(Cc2ccc(-n3cccn3)cc2)cn2ncnc12` [compound 33, N-[(1S,2S)-2-hydroxycyclohexyl]-6-[(4-pyrazol-1-ylphenyl)methyl]-[1,2,4]triazolo[1,5-a]pyridine-8-carboxamide], in that order: 6.22 and 87%.
On to `Cn1ccc(-c2ccc(Cc3cc(C(=O)N[C@H]4CCOC[C@@H]4O)c4ncnn4c3)cn2)n1` [compound 27, N-[(3R,4S)-3-hydroxytetrahydropyran-4-yl]-6-[[6-(1-methylpyrazol-3-yl)-3-pyridyl]methyl]-[1,2,4]triazolo[1,5-a]pyridine-8-carboxamide], for which the pEC50 is 5.10 and the Emax amounted to 78%.
For `O=C(N[C@H]1CCOC[C@@H]1O)c1cc(Cc2ccc(-n3cccn3)nc2)cn2ccnc12` [compound 63, N-[(3R,4S)-3-hydroxytetrahydropyran-4-yl]-6-[(6-pyrazol-1-yl-3-pyridyl)methyl]imidazo[1,2-a]pyridine-8-carboxamide], in that order: 5.32 and 67%.
As for `Cn1ccc(-c2ccc(Cc3cc(C(=O)N[C@H]4CCOC[C@@H]4O)c4ncnn4c3)c(F)c2)n1` [compound 45, 6-[[2-fluoro-4-(1-methylpyrazol-3-yl)phenyl]methyl]-N-[(3R,4S)-3-hydroxytetrahydropyran-4-yl]-[1,2,4]triazolo[1,5-a]pyridine-8-carboxamide], the pEC50 is 6.16 and the Emax worked out at 82%.
In the case of `Cn1cc(-c2ccc(Cc3cc(C(=O)NC4CCOCC4)c4ncnn4c3)cc2)cn1` [compound 34, 6-[[4-(1-methylpyrazol-4-yl)phenyl]methyl]-N-tetrahydropyran-4-yl-[1,2,4]triazolo[1,5-a]pyridine-8-carboxamide], the pEC50 is 5.43 and the Emax came to 35%.
The like results for `Cc1nc(-c2ccc(Cc3cc(C(=O)N[C@H]4CCCC[C@@H]4O)c4ncnn4c3)cc2)co1` [compound 32, N-[(1S,2S)-2-hydroxycyclohexyl]-6-[[4-(2-methyloxazol-4-yl)phenyl]methyl]-[1,2,4]triazolo[1,5-a]pyridine-8-carboxamide] were, in that order, 5.84 and 87%.
For the molecule `O=C(N[C@H]1CCCC[C@@H]1O)c1cc(Cc2ccc(-n3cccn3)cc2)cc2ncnn12` [compound 20, N-[(1S,2S)-2-hydroxycyclohexyl]-7-[(4-pyrazol-1-ylphenyl)methyl]-[1,2,4]triazolo[1,5-a]pyridine-5-carboxamide], the negative-log EC50 (pEC50) was 5.92 and the maximal effect (Emax) worked out at 82%.
As for `O=C(N[C@H]1CCCC[C@@H]1O)c1cc(Cc2ccc(-n3cccn3)nc2)cn2ccnc12` [compound 60, N-[(1S,2S)-2-hydroxycyclohexyl]-6-[(6-pyrazol-1-yl-3-pyridyl)methyl]imidazo[1,2-a]pyridine-8-carboxamide], the pEC50 was 6.00 and the Emax came out at 47%.
Regarding `O=C(N[C@H]1CCCC[C@@H]1O)c1cc(Cc2ccc(-n3cccn3)cc2)cn2cnnc12` [compound 19, N-[(1S,2S)-2-hydroxycyclohexyl]-6-[(4-pyrazol-1-ylphenyl)methyl]-[1,2,4]triazolo[4,3-a]pyridine-8-carboxamide], the pEC50 was 5.77 and the Emax was found to be 74%.
As for `Cn1cc(-c2cc(F)c(Cc3cc(C(=O)N[C@H]4CCOC[C@@H]4O)c4nccn4c3)c(F)c2)cn1` [compound 49, 6-[[2,6-difluoro-4-(1-methylpyrazol-4-yl)phenyl]methyl]-N-[(3R,4S)-3-hydroxytetrahydropyran-4-yl]imidazo[1,2-a]pyridine-8-carboxamide], the pEC50 was 6.32 and the maximal response (Emax) came to 67%.
`Cc1c(Cc2ccc(-c3cnn(C)c3)cc2F)cc(C(=O)N[C@H]2CCCC[C@@H]2O)c2nccn12` [compound 57, 6-[[2-fluoro-4-(1-methylpyrazol-4-yl)phenyl]methyl]-N-[(1S,2S)-2-hydroxycyclohexyl]-5-methyl-imidazo[1,2-a]pyridine-8-carboxamide]: the pEC50 is 7.01 and the Emax was found to be 68%.
For `Cn1cc(-c2ccc(Cc3cc(C(=O)N[C@H]4CCOC[C@@H]4O)c4nccn4c3)c(F)c2)cn1` [compound 55, 6-[[2-fluoro-4-(1-methylpyrazol-4-yl)phenyl]methyl]-N-[(3R,4S)-3-hydroxytetrahydropyran-4-yl]imidazo[1,2-a]pyridine-8-carboxamide], in that order: 6.91 and 65%.
Take `Cn1ccc(-c2ccc(Cc3cc(C(=O)N[C@@H]4CCCC[C@H]4O)c4nccn4c3)cc2)n1` [compound 2, N-[(1R,2R)-2-hydroxycyclohexyl]-6-[[4-(1-methylpyrazol-3-yl)phenyl]methyl]imidazo[1,2-a]pyridine-8-carboxamide]: the negative-log EC50 (pEC50) was 6.50 and the Emax amounted to 77%.

Usually pEC50 stands for −log10 of the EC50, conventionally taken in molar units. What is called Emax is the greatest response seen or fitted, relative to the assay's reference.
